Test results as given in patent USRE38257E1, “Piperdine derivatives and hypotensives containing the same” (Ajinomoto Co., Inc., priority 1988, dated 2003).
Counter-ions that a name gives are not always drawn.

System: male spontaneously hypertensive rats
Assay: Decrease in systolic blood pressure in spontaneously hypertensive rats after intravenous bolus injection, indirect (tail-cuff) method
Format: in vivo, rat
Details: for Decrease in systolic blood pressure (mmHg) time after administration (hour) 0.5: 0.5 hour after administration; for Decrease in systolic blood pressure (mmHg) time after administration (hour) 4: 4 hours after administration
Method: As test animals, four male spontaneously hypertensive rats (weight 400 to 440 g) that were sufficiently adapted for feeding and in which hypertension was confirmed were used.
Physiological saline aqueous solution containing 2.5% Nicolle and 2.5% ethanol of sample was intravenously administered by bolus injection at a dose of 1 ml per 1 kg of body weight. Systolic blood pressure after administration was measured by the indirect (tail-cuff) method.

SMILES	Decrease in systolic blood pressure (mmHg) time after administration (hour) 0.5 (dose 10 mg/kg i.v. bolus) [mmHg]	Decrease in systolic blood pressure (mmHg) time after administration (hour) 4 (dose 10 mg/kg i.v. bolus) [mmHg]	Decrease in systolic blood pressure (mmHg) time after administration (hour) 0.5 (dose 3 mg/kg i.v. bolus) [mmHg]	Decrease in systolic blood pressure (mmHg) time after administration (hour) 4 (dose 3 mg/kg i.v. bolus) [mmHg]
C1=Cc2ccccc2C(=C2CCN(CCCCN3CCCCC3)CC2)c2ccccc21 [Example 209, 1-(4-(4-(5H-Dibenzo[a,d]cyclohepten-5-ylidene)-1-piperidinyl)butyl)piperidine dihydroxybutane hydrochloride]	−49	−13	–	–
CCCCC(O)(CCCN1CCC(=C2c3ccccc3C=Cc3ccccc32)CC1)c1ccc(OC)c(OC)c1.Cl (stereo not drawn) [Example 207, 1-butyl-4-(4-(5H-dibenzo[a,d]cyclohepten-5-ylidene)-1-piperidinyl)-1-(3,4-dimethoxy)phenyl-1-hydroxybutane hydroxybutane hydrochloride]	−98	−43	–	–
COc1ccc(CN2CCC(=C3c4ccccc4C=Cc4ccccc43)CC2)cc1.Cl [Example 119, 4-(5H-Dibenzo[a,d]cyclohepten-5-ylidene)-1-(4-methoxybenzyl)piperidine hydrochloride]	−34	−5	–	–
CCCCCCCCN1CCC(=C2c3ccccc3C=Cc3ccccc32)CC1.Cl [Example 2, 4-(5H-Dibenzo[a,d]cyclohepten-5-ylidene)-1-octylpiperidine hydrochloride]	−125	−34	–	–
C1=Cc2ccccc2C(=C2CCN(CCCCC3CCCCC3)CC2)c2ccccc21.Cl [Example 228]	–	–	−112	−14
Cl.O=C1CCCCN1CCCCN1CCC(=C2c3ccccc3C=Cc3ccccc32)CC1 [Example 268, N-(4-(4-(5H-Dibenzo[a,d]cyclohepten-5-ylidene)-1-piperidinyl)-1-butyl)-2-piperidone hydrochloride]	−29	13	–	–
COc1cc(C(=O)N2CCC(=C3c4ccccc4C=Cc4ccccc43)CC2)cc(OC)c1OC [Example 189, 4-(5H-Dibenzo[a,d]cyclohepten-5-ylidene)-1-(3,4,5-trimethoxybenzoyl)piperidine]	−72	−15	–	–
Cl.c1ccc2c(c1)Oc1ccccc1C2=C1CCN(CCCCC2CCCCC2)CC1 [Example 181]	−56	−27	–	–
COc1cccc(C=CC(=O)N2CCC(=C3c4ccccc4C=Cc4ccccc43)CC2)c1OC [Example 192, 4-(5H-Dibenzo[a,d]cyclohepten-5-ylidene)-1-(2-dimethoxycinnamoyl)piperidine]	−25	−36	–	–
Cl.O=C(NCCN1CCCCC1=C1c2ccccc2C=Cc2ccccc21)c1cccc([N+](=O)[O-])c1 [Example 290, N-(2-(5H-Dibenzo[a,d]cyclohepten-5-ylidene)-1-piperidinyl)ethyl-3-nitrobenzamide hydrochloride]	–	–	−15	15
O=C(O)C(CCN1CCC(=C2c3ccccc3C=Cc3ccccc32)CC1)C1CCCCC1 (stereo not drawn) [Example 238, 2-Cyclohexyl-4-(4-(5H-dibenzo[a,d]cyclohepten-5-ylidene)-1-piperidinyl)butyric acid]	−14	−5	–	–
Cc1cccc(CN2CCC(=C3c4ccccc4C=Cc4ccccc43)CC2)c1.Cl [Example 132, 4-(5H-Dibenzo[a,d]cyclohepten-5-ylidene)-1-(3-methylbenyl)piperidine hydrochloride]	−106	−5	–	–
